Results published in PMC7961618, “Inhibitor Development against p7 Channel in Hepatitis C Virus” (Molecules, 2021).
Read-outs that look alike come from different tables or passages of the source.

Key:
p7 (5a) protein = p7 (5a) protein (Hepatitis C virus genotype 5a (Hepacivirus hominis), UniProt O39928, A759S/C749A/C774T/C791S/T748G); assay: NMR titration (2D 1H-15N TROSY-HSQC chemical shift perturbation) for Kd; type: binding; settings: for Kd: read-out: Kd GT5a
[1] = system: HCV (JFH1 strain with adaptive mutations); type: cell-based; settings: for viral production kinetics versus mock control: 20 μM, supernatant at 2, 6, 12 and 24 h post-incubation; for IC50 against HCV compared with Rim: Huh7.5.1 cells, JFH1, 12 h
Huh7.5.1 cells = assay: CellTiter-Glo cell viability and cytotoxicity assay; settings: 12 h incubation
Method: (§1) (B) After incubation with each compound, the cell viability and cytotoxicity were detected by CellTiter-Glo® Luminescent Cell Viability Assay reagent (Promega GS7570, Madison, WI, USA). […] Data were presented as the percentage of mock treatment control. […] Two independent experiments were repeated showing similar results.
(§2) Cell viability and cytotoxicity were detected by CellTiter-Glo® Luminescent Cell Viability Assay reagent (Promega GS7570, Madison, WI, USA). Briefly, Huh7.5.1 cells were seeded at a density of 80,000 cells per well in 24-well microplates and allowed to attach and grow overnight. The next day, the cell-culture media with serially diluted compounds in 0.5% DMSO or mock were added to the cells. After 12 h of incubation, cells were collected and lysed for the cell cytotoxicity assay.

[2] = as above; settings: human, Huh7.5.1 cells
Method: as §1, §2

HCV genotype 3 = system: HCV genotype 3; set-up: method as in PMID 27783808; settings: cited from earlier work
HCV = system: HCV; set-up: method as in PMID 18828153; settings: cited from earlier work
hepatoma cell lines = system: hepatoma cell lines; set-up: method as in PMID 18828153; settings: cited from earlier work
[3] = apparent Kd from chemical shift changes of Val7 or Leu8, 0.1 mM 15N-p7 (5a) in 20 mM DPC, 30 °C

Sequence of p7 (5a) protein (O39928 748-810 T748G/C749A/A759S/C774T/C791S): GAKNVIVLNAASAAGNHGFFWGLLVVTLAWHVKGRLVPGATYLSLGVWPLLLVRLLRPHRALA

| SMILES | Kd (p7 (5a) protein; [3]) [µM] | also measured |
| --- | --- | --- |
| CCNC(C)C12CC3CC(CC(C3)C1)C2 (stereo not shown) [ARD1] | 487 |  |
| CCC(NC)C12CC3CC(CC(C3)C1)C2 (stereo not shown) [ARD2] | 334 |  |
| CNC(CO)C12CC3CC(CC(C3)C1)C2 (stereo not shown) [ARD6] | 344 |  |
| CNC(C(N)=O)C12CC3CC(CC(C3)C1)C2 (stereo not shown) [ARD8] | 707 |  |
| CNC(=O)C(NC)C12CC3CC(CC(C3)C1)C2 (stereo not shown) [ARD9] | 418 |  |
| NC(C(F)F)C12CC3CC(CC(C3)C1)C2 (stereo not shown) [ARD71] | 2460 |  |
| NC(CNC(=O)CCOCCOCCOCCC(=O)NCC(N)C12CC3CC(CC(C3)C1)C2)C12CC3CC(CC(C3)C1)C2 (stereo not shown) [ARD80] | 102 |  |
| NC(CNC(=O)CCOCCOCCOCCOCCC(=O)NCC(N)C12CC3CC(CC(C3)C1)C2)C12CC3CC(CC(C3)C1)C2 (stereo not shown) [ARD81] | 81 |  |
| NC(CNC(=O)CCOCCOCCOCCOCCOCCOCCC(=O)NCC(N)C12CC3CC(CC(C3)C1)C2)C12CC3CC(CC(C3)C1)C2 (stereo not shown) [ARD83] | 70 |  |
| NC(CNC(=O)CCOCCOCCOCCOCCOCCOCCOCCC(=O)NCC(N)C12CC3CC(CC(C3)C1)C2)C12CC3CC(CC(C3)C1)C2 (stereo not shown) [ARD84] | 58 |  |
| NC(CNC(=O)CCOCCC(=O)NCC(N)C12CC3CC(CC(C3)C1)C2)C12CC3CC(CC(C3)C1)C2 (stereo not shown) [ARD87] |  | Kd (p7 (5a) protein): 43 µM; viral production kinetics versus mock control [1]: suppress the viral production; IC50 against HCV compared with Rim [1]: about two-fold lower than that of Rim; cytotoxicity compared with Rim (Huh7.5.1 cells): significantly higher than Rim |
| Oc1ccc(CNC23CC4CC(CC(C4)C2)C3)c(O)c1 [ARD89] | 112 |  |
| OCC1(CNCc2cc(-c3ccccc3)on2)C2CC3CC(C2)CC1C3 (stereo not shown) [ARD98] | 102 |  |
| Cc1cc(CNCC2(CO)C3CC4CC(C3)CC2C4)ccn1 (stereo not shown) [ARD99] | 852 |  |
| Cc1ccc(CNCC2(CO)C3CC4CC(C3)CC2C4)cn1 (stereo not shown) [ARD100] | 107 |  |
| OCC1(CNCc2cc(C3CC3)on2)C2CC3CC(C2)CC1C3 (stereo not shown) [ARD101] | 105 |  |
| CC1(NCc2nnc(-c3cc(O)cc(O)c3)[nH]2)C2CC3CC(C2)CC1C3 (stereo not shown) [ARD112] | 5 | binding strength relative to the best dimeric compound ARD87 (p7 (5a) protein; from NMR Kd values, p7 (5a)): ~ 10 fold; viral production kinetics versus mock control [1]: suppress the viral production; IC50 against HCV compared with Rim [1]: about two-fold lower than that of Rim; CC50 at 12 h [2]: > 100 µM; cytotoxicity compared with Rim (Huh7.5.1 cells): comparable to Rim |
| NC12CC3CC(CC(C3)C1)C2 [Amantadine] |  | inhibition of genotype 3 (HCV genotype 3): could not inhibit genotype 3 |
| CC(N)C12CC3CC(CC(C3)C1)C2 (stereo not shown) [Rimantadine, reference compound] |  | Kd (p7 (5a) protein): 98 µM; viral production kinetics versus mock control [1]: suppress the viral production; anti-HCV activity (HCV): moderate anti-HCV activity; cytotoxicity against hepatoma cell lines (hepatoma cell lines): no significant cytotoxicity; CC50 at 12 h [2]: > 100 µM |
